Laboratory results as given in PubChem BioAssay AID1259407 (Chemical Carcinogenesis Research Information System (CCRIS), 2018).
Activity calls are given as the source filed them. How the calls were made is not given here.

Test system: CCRIS mutagenicity, Ames/micronucleus/aberration tests
Test: CCRIS mutagenicity studies
[1] = Test System: AMES SALMONELLA TYPHIMURIUM, Strain/Indicator: TA98, Metabolic Activation: NONE, Method: STANDARD PLATE
[2] = Test System: AMES SALMONELLA TYPHIMURIUM, Strain/Indicator: TA100, Metabolic Activation: NONE, Method: STANDARD PLATE

O=CCCCC=O
mutagenic call (End Point: IN VITRO CHROMOSOMAL ABERRATIONS, Test System: CHL CELLS, Metabolic Activation: RAT, LIVER, S-9, SODIUM PHENOBARBITAL AND 5,6-BENZOFLAVONE): active; positive (structural and ploidy changes)
mutagenic call (End Point: IN VITRO CHROMOSOMAL ABERRATIONS, Test System: SYRIAN HAMSTER EMBRYO (SHE) CELLS, Metabolic Activation: NONE): inactive; negative
mutagenic call (End Point: IN VITRO CHROMOSOMAL ABERRATIONS, Test System: SYRIAN HAMSTER EMBRYO (SHE) CELLS, Metabolic Activation: RAT, LIVER, S-9): inactive; negative
mutagenic call (End Point: In vitro micronucleus, Test System: Chinese hamster V79 cells, Metabolic Activation: None): active; positive (concentrations of 10 um and above strongly inhibited growth of cells,
mutagenic call (End Point: In vitro micronucleus, Test System: Chinese hamster V79 cells, Metabolic Activation: None, Method: FISH): inactive; positive (majority were centromer negative. authors attribute results as showing
mutagenic call (Test System: AMES SALMONELLA TYPHIMURIUM, Strain/Indicator: TA97A, Metabolic Activation: NONE, Method: STANDARD PLATE): inactive; negative
mutagenic call (Test System: AMES SALMONELLA TYPHIMURIUM, Strain/Indicator: TA98, Metabolic Activation: HAMSTER LIVER S-9, AROCLOR-1254 (10%), Method: PREINCUBATION): inactive; negative
mutagenic call [1]: inactive; negative
mutagenic call (Test System: AMES SALMONELLA TYPHIMURIUM, Strain/Indicator: TA98, Metabolic Activation: RAT LIVER S-9, AROCLOR-1254 (10%), Method: PREINCUBATION): inactive; negative
mutagenic call (Test System: AMES SALMONELLA TYPHIMURIUM, Strain/Indicator: TA98, Metabolic Activation: RAT LIVER S-9, PHENOBARBITAL AND BETA-NAPHTHOFLAVONE, Method: PREINCUBATION): inactive; negative
mutagenic call (Test System: AMES SALMONELLA TYPHIMURIUM, Strain/Indicator: TA100, Metabolic Activation: HAMSTER LIVER S-9, AROCLOR-1254 (10%), Method: PREINCUBATION): inactive; negative
mutagenic call (Test System: AMES SALMONELLA TYPHIMURIUM, Strain/Indicator: TA100, Metabolic Activation: MOUSE LIVER S-9, AROCLOR 1254, Method: PREINCUBATION): active; positive
mutagenic call [2]: inactive; negative
mutagenic call (Test System: AMES SALMONELLA TYPHIMURIUM, Strain/Indicator: TA100, Metabolic Activation: RAT LIVER S-9, AROCLOR 1254, Method: PREINCUBATION): active; positive
mutagenic call (Test System: AMES SALMONELLA TYPHIMURIUM, Strain/Indicator: TA100, Metabolic Activation: RAT LIVER S-9, PHENOBARBITAL AND BETA-NAPHTHOFLAVONE NONE, Method: PREINCUBATION): inactive; negative
mutagenic call (Test System: AMES SALMONELLA TYPHIMURIUM, Strain/Indicator: TA102, Metabolic Activation: MOUSE LIVER S-9, AROCLOR 1254, Method: PREINCUBATION): active; positive
mutagenic call (Test System: AMES SALMONELLA TYPHIMURIUM, Strain/Indicator: TA102, Metabolic Activation: MOUSE LIVER S-9, AROCLOR-1254 (10%), Method: PREINCUBATION): active; positive
mutagenic call (Test System: AMES SALMONELLA TYPHIMURIUM, Strain/Indicator: TA102, Metabolic Activation: NONE, Method: PREINCUBATION): active; positive
mutagenic call (Test System: AMES SALMONELLA TYPHIMURIUM, Strain/Indicator: TA102, Metabolic Activation: RAT LIVER S-9, AROCLOR 1254, Method: PREINCUBATION): active; positive
mutagenic call (Test System: AMES SALMONELLA TYPHIMURIUM, Strain/Indicator: TA102, Metabolic Activation: RAT LIVER S-9, AROCLOR-1254 (10%), Method: PREINCUBATION): active; positive
mutagenic call (Test System: AMES SALMONELLA TYPHIMURIUM, Strain/Indicator: TA104, Metabolic Activation: MOUSE LIVER S-9, AROCLOR 1254, Method: PREINCUBATION): active; positive
mutagenic call (Test System: AMES SALMONELLA TYPHIMURIUM, Strain/Indicator: TA104, Metabolic Activation: MOUSE LIVER S-9, AROCLOR-1254 (10%), Method: PREINCUBATION): active; positive
mutagenic call (Test System: AMES SALMONELLA TYPHIMURIUM, Strain/Indicator: TA104, Metabolic Activation: NONE, Method: PREINCUBATION): active; positive
mutagenic call (Test System: AMES SALMONELLA TYPHIMURIUM, Strain/Indicator: TA104, Metabolic Activation: NONE, Method: STANDARD PLATE): inactive; negative
mutagenic call (Test System: AMES SALMONELLA TYPHIMURIUM, Strain/Indicator: TA104, Metabolic Activation: RAT LIVER S-9, AROCLOR 1254, Method: PREINCUBATION): active; positive
mutagenic call (Test System: AMES SALMONELLA TYPHIMURIUM, Strain/Indicator: TA104, Metabolic Activation: RAT LIVER S-9, AROCLOR-1254 (10%), Method: PREINCUBATION): active; positive
mutagenic call (Test System: AMES SALMONELLA TYPHIMURIUM, Strain/Indicator: TA1535, Metabolic Activation: HAMSTER LIVER S-9, AROCLOR-1254 (10%), Method: PREINCUBATION): inactive; negative
mutagenic call (Test System: AMES SALMONELLA TYPHIMURIUM, Strain/Indicator: TA1535, Metabolic Activation: NONE, Method: PREINCUBATION): inactive; negative
mutagenic call (Test System: AMES SALMONELLA TYPHIMURIUM, Strain/Indicator: TA1535, Metabolic Activation: RAT LIVER S-9, AROCLOR-1254 (10%), Method: PREINCUBATION): inactive; negative
mutagenic call (Test System: AMES SALMONELLA TYPHIMURIUM, Strain/Indicator: TA1535, Metabolic Activation: RAT LIVER S-9, PHENOBARBITAL AND BETA-NAPHTHOFLAVONE NONE, Method: PREINCUBATION): inactive; negative
mutagenic call (Test System: AMES SALMONELLA TYPHIMURIUM, Strain/Indicator: TA1537, Metabolic Activation: HAMSTER LIVER S-9, AROCLOR-1254 (10%), Method: PREINCUBATION): inactive; negative
mutagenic call (Test System: AMES SALMONELLA TYPHIMURIUM, Strain/Indicator: TA1537, Metabolic Activation: NONE, Method: PREINCUBATION): inactive; negative
mutagenic call (Test System: AMES SALMONELLA TYPHIMURIUM, Strain/Indicator: TA1537, Metabolic Activation: RAT LIVER S-9, AROCLOR-1254 (10%), Method: PREINCUBATION): inactive; negative
mutagenic call (Test System: AMES SALMONELLA TYPHIMURIUM, Strain/Indicator: TA1537, Metabolic Activation: RAT LIVER S-9, PHENOBARBITAL AND BETA-NAPHTHOFLAVONE NONE, Method: PREINCUBATION): inactive; negative
mutagenic call (Test System: AMES SALMONELLA TYPHIMURIUM, Strain/Indicator: TA2638, Metabolic Activation: NONE, Method: STANDARD PLATE): active; positive
mutagenic call (Test System: AMES SALMONELLA TYPHIMURIUM, Strain/Indicator: TA2638A, Metabolic Activation: NONE, Method: STANDARD PLATE): active; positive
mutagenic call (Test System: E. COLI, Strain/Indicator: WP2 UVRA (PKM101), Metabolic Activation: NONE, Method: STANDARD PLATE): active; positive
mutagenic call (Test System: E. COLI, Strain/Indicator: WP2UVRA, Metabolic Activation: NONE, Method: PREINCUBATION): inactive; negative
mutagenic call (Test System: E. COLI, Strain/Indicator: WP2UVRA, Metabolic Activation: RAT LIVER S-9, PHENOBARBITAL AND BETA-NAPHTHOFLAVONE, Method: PREINCUBATION): inactive; negative
mutagenic call (Test System: MOUSE LYMPHOMA, Strain/Indicator: L5178Y (TRIFLUOROTHYMIDINE), Metabolic Activation: NONE, Method: SUSPENSION/PLATE): active; positive
mutagenic call (Test System: UDS RODENT HEPATOCYTES, Strain/Indicator: THY INCORP (NON-S-PHASE), Metabolic Activation: NONE, Method: AUTORADIOGRAPHY): active; positive

CCc1cc(O)cc2c3c([nH]c12)C(CC)(CC(=O)O)OCC3 (stereo unspecified)
mutagenic call [1]: active; positive
mutagenic call (Test System: AMES SALMONELLA TYPHIMURIUM, Strain/Indicator: TA98, Metabolic Activation: RAT, LIVER, S-9 (10 OR 50 µL/PLATE), Method: STANDARD PLATE): inactive; negative
mutagenic call [2]: inactive; negative
mutagenic call (Test System: AMES SALMONELLA TYPHIMURIUM, Strain/Indicator: TA100, Metabolic Activation: RAT, LIVER, S-9 (10 OR 50 µL/PLATE), Method: STANDARD PLATE): inactive; negative
mutagenic call (Test System: AMES SALMONELLA TYPHIMURIUM, Strain/Indicator: TA1535, Metabolic Activation: NONE, Method: STANDARD PLATE): inactive; negative
mutagenic call (Test System: AMES SALMONELLA TYPHIMURIUM, Strain/Indicator: TA1535, Metabolic Activation: RAT, LIVER, S-9 (10 OR 50 µL/PLATE), Method: STANDARD PLATE): inactive; negative
mutagenic call (Test System: AMES SALMONELLA TYPHIMURIUM, Strain/Indicator: TA1537, Metabolic Activation: NONE, Method: STANDARD PLATE): inactive; negative
mutagenic call (Test System: AMES SALMONELLA TYPHIMURIUM, Strain/Indicator: TA1537, Metabolic Activation: RAT, LIVER, S-9 (10 OR 50 µL/PLATE), Method: STANDARD PLATE): inactive; negative
mutagenic call (Test System: E. COLI, Strain/Indicator: WP2 UVRA, Metabolic Activation: NONE, Method: STANDARD PLATE): inactive; negative
mutagenic call (Test System: E. COLI, Strain/Indicator: WP2 UVRA, Metabolic Activation: RAT, LIVER, S-9 (10 OR 50 µL/PLATE), Method: STANDARD PLATE): inactive; negative
